Test results as given in paper PMC11345830, “Exploration of Hydrazide-Based HDAC8 PROTACs for the Treatment of Hematological Malignancies and Solid Tumors” (Journal of Medicinal Chemistry, 2024).

How the values were obtained:
Type in all cases: cell-based
Jurkat cells = test: Lipid peroxidation detection (BODIPY 581/591 C11), Jurkat; details: 10 μM, 24 h
Procedure: (§1) Jurkat cells (5 × 10^5), HCT116 cells (3 × 10^5) and THP-1 cells (5 × 10^5) were seeded on 6-well plates. The next day, cells were treated with indicated concentrations of compounds for 24 or 48 h. Then, cells were stained with 1.3 μM of BODIPY 581/591 C11 (Invitrogen, D3861) for another 1 h at 37 °C. Later, cells were harvested and washed three times with ice-cold PBS, followed by resuspended in FACS buffer (1% BSA in PBS). Lipid peroxidation was determined by NovoCyte Quanteon Flow Cytometer (Agilent Technologies, CA, USA).

HDAC4 = molecular target: T1, HDAC4 (Homo sapiens, UniProt P56524); test: HDAC4 level in Jurkat cells, Western blot; details: 6 h
T1 construct: endogenous in cells; host or cells: Jurkat
T1 sequence (P56524 whole entry): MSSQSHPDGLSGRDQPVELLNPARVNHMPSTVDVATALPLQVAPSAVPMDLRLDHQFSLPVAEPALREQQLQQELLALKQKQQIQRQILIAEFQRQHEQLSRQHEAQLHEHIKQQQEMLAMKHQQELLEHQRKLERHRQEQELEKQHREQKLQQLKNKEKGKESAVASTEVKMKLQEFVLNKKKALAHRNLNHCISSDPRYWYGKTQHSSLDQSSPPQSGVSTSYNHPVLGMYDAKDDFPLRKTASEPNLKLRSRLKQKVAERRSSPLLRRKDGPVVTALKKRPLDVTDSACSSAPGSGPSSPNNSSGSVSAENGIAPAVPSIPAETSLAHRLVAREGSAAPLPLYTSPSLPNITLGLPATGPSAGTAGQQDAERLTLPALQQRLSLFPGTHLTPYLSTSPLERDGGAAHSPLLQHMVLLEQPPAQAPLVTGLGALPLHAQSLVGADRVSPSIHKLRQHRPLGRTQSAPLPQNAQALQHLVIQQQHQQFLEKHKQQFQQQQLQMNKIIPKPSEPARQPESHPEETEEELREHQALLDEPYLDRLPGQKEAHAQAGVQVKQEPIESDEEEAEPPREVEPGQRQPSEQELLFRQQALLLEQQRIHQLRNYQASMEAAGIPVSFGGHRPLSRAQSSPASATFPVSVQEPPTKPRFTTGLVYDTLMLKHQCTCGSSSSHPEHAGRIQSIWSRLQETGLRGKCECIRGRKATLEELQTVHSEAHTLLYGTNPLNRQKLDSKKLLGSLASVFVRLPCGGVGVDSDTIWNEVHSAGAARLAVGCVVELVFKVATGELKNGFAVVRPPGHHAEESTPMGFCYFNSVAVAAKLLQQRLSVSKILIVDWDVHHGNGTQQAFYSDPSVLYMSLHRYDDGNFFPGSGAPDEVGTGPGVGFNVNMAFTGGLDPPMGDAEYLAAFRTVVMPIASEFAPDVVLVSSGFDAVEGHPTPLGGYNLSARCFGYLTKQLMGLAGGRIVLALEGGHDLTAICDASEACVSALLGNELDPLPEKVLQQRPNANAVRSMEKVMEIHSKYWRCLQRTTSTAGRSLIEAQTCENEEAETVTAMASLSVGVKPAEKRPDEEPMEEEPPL

IKZF3 = molecular target: T2, IKZF3 (Homo sapiens, UniProt Q9UKT9); test: IKZF3 level in Jurkat cells, Western blot; details: 6 h
T2 construct: endogenous in cells; host or cells: Jurkat
T2 sequence (Q9UKT9 whole entry): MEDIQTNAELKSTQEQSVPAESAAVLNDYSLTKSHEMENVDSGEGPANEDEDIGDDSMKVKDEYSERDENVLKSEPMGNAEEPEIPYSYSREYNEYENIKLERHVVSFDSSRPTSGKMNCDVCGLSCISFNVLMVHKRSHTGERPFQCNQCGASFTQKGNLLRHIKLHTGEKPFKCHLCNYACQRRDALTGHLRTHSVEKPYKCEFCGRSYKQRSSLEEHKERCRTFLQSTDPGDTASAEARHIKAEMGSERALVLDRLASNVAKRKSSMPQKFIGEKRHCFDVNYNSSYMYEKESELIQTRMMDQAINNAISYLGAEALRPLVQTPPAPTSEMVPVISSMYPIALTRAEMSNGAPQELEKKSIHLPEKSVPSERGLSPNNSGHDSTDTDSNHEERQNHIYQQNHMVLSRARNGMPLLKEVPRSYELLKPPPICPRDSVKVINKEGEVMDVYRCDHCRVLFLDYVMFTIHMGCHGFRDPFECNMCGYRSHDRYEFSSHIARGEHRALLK

HDAC6 = molecular target: T3, HDAC6 (Homo sapiens, UniProt Q9UBN7); test: HDAC6 level in Jurkat cells, Western blot; set-up: endogenous in cells; host or cells: Jurkat; details: 6 h
T3 sequence (Q9UBN7 1-1215): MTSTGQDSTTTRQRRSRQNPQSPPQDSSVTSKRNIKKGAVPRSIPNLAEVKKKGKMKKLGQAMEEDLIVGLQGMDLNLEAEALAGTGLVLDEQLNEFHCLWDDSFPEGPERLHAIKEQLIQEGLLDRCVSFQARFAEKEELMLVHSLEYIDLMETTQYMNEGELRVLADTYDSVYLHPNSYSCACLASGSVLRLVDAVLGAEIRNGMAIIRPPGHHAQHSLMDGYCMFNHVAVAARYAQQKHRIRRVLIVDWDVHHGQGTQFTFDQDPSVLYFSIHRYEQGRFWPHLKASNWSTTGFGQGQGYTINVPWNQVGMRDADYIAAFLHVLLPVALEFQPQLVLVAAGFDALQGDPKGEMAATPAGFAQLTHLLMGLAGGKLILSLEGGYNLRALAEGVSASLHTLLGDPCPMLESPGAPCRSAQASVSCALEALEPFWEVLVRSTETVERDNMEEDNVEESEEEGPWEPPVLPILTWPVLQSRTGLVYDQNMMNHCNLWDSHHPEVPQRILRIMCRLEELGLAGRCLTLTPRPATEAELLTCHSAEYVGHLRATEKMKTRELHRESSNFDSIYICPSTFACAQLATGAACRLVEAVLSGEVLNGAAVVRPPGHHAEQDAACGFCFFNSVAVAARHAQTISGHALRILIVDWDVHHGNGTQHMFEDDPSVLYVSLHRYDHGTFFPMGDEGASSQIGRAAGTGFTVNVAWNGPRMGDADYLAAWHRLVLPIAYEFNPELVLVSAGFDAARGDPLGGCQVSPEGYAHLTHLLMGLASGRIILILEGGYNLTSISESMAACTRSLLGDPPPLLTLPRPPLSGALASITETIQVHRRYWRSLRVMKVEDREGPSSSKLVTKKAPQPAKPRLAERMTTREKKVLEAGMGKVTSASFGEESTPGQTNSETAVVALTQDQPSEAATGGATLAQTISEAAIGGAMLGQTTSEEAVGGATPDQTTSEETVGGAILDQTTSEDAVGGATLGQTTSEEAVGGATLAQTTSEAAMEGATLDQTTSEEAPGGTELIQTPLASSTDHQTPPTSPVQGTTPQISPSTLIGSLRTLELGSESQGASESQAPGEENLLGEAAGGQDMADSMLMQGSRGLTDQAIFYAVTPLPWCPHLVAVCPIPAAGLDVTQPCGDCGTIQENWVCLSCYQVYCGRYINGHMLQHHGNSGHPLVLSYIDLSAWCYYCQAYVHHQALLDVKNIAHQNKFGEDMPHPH

HCT116 cells = test: Lipid peroxidation detection (BODIPY 581/591 C11), HCT116; details: 24 h, low micromolar concentrations
Procedure: as §1

IKZF1 = molecular target: T4, IKZF1 (Homo sapiens, UniProt Q13422); test: IKZF1 level in Jurkat cells, Western blot; details: 6 h
T4 construct: endogenous in cells; host or cells: Jurkat
T4 sequence (Q13422 whole entry): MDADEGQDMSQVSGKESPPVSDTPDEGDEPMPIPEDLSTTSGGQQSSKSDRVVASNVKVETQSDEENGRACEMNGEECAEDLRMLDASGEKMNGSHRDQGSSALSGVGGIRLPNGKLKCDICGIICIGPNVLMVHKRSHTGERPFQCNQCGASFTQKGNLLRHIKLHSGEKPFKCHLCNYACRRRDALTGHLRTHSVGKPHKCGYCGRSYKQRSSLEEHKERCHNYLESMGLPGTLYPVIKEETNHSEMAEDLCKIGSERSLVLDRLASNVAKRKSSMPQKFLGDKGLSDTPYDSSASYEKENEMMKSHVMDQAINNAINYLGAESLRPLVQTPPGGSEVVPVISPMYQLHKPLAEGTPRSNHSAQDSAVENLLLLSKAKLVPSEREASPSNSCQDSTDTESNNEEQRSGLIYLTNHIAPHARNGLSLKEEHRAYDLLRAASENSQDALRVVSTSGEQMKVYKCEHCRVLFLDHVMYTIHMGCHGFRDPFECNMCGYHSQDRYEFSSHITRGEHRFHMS

[1] = system: acetyl-histone H3 (Ac-HH3); test: Ac-HH3 level in Jurkat cells, Western blot; details: 6 h
HEL cells = test: Cell viability MTS assay, HEL; details: ratio of IC50 values
Procedure: MTS assay was used to measure the cell viability. For single treatment, Jurkat, THP-1 and HEL (8000 cells/well), HCT116 and A549 (2000 cells/well) were seeded in 96-well plates in 100 μL complete medium. After overnight incubation, 50 μL of media containing various concentrations of compounds or the vehicle were added to each well. For cotreatment, cells were seeded in 96-well plates in 50 μL complete medium. After overnight incubation, 50 μL of Z-VAD-FMK, Nec-1, Fer-1, CQ, and other indicated compounds were added to each well. One hour later, 50 μL of media containing various concentrations of compounds were added to each well. After 72 h of treatment, 20 μL of CellTiter 96 AQueous One Solution reagent (Promega, Madison, USA) was added to each well according to manufacturer’s protocol. Plates were incubated at 37 °C for 1–2 h. The absorbance was determined at a wavelength of 490 nm using a Synergy H1 plate reader (Biotek, Winooski, VT, USA).

HDAC11 = molecular target: T5, HDAC11 (Homo sapiens, UniProt Q96DB2); test: HDAC11 level in Jurkat cells, Western blot; details: 6 h
T5 construct: endogenous in cells; host or cells: Jurkat
T5 sequence (Q96DB2 1-347): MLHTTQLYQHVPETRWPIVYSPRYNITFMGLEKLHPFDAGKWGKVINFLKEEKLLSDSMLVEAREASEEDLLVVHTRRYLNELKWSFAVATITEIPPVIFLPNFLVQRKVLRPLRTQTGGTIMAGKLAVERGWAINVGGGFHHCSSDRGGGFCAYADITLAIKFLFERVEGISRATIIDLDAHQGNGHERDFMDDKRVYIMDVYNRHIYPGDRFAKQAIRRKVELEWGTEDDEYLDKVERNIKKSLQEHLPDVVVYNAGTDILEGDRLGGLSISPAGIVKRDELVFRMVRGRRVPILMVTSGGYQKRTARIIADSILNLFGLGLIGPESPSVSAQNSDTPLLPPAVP

GSPT1 = molecular target: T6, GSPT1 (Homo sapiens, UniProt P15170); test: GSPT1 level in Jurkat cells, Western blot; details: 6 h
T6 construct: endogenous in cells; host or cells: Jurkat
T6 sequence (P15170 whole entry): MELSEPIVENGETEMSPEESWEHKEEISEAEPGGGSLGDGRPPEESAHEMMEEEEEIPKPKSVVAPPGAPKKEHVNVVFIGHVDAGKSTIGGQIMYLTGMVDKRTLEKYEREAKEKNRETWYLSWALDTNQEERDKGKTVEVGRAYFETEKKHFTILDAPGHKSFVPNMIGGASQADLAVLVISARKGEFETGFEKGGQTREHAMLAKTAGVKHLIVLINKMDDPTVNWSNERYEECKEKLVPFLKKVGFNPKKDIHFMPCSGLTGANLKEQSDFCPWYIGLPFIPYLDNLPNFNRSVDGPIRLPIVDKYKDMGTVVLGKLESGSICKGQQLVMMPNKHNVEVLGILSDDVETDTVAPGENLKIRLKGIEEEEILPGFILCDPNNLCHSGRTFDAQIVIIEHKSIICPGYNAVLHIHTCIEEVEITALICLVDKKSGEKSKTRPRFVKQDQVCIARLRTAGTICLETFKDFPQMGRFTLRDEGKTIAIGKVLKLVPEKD

`CCCCCCNNC(=O)c1ccc(CNC(=O)CN2CCC(c3ccc(NC4CCC(=O)NC4=O)cc3)CC2)cc1` (stereo not shown) [Z16, 2-(4-(4-((2,6-Dioxopiperidin-3-yl)amino)phenyl)piperidin-1-yl)-N-(4-(2-hexylhydrazine-1-carbonyl)benzyl)acetamide] was tested, and the lipid peroxidation induced (Jurkat cells) was “over 40%”, the “HDAC4 degradation (in words)” value (HDAC4) was “no obvious” and the “intracellular level of IKZF3 (in words)” value (IKZF3) was “did not significantly affect”. For the same molecule, the “HDAC6 degradation (in words)” value (HDAC6) was “no obvious”, the “lipid peroxidation (in words)” value (HCT116 cells) was “induced lipid peroxidation in a dose-dependent manner” and the “intracellular level of IKZF1 (in words)” value (IKZF1) was “did not significantly affect”. For the same molecule, the “level of Ac-HH3 at 1 μM (in words)” value [1] was “significantly increase”, the “less potent than SAHA against HEL cells” value (HEL cells) was “about 10 fold” and the “HDAC11 degradation (in words)” value (HDAC11) was “no obvious”. For the same molecule, the “intracellular level of GSPT1 (in words)” value (GSPT1) was “did not significantly affect”.
